Test results as given in article PMC12186263, “Molecular Basis for Peptide Nitration by a Novel Cytochrome P450 Enzyme in RiPP Biosynthesis” (ACS Catalysis, 2025).
Ends that are not written are not given here.

Columns and labels:
ferrous RufO = experiment: Stopped-flow transient kinetics of O2 and •NO binding to ferrous RufO; conditions: 4 °C; for association rate constant k1: 3.3 μM ferrous RufO, pH 8.0, linear fit
Procedure: 5 Transient kinetics of ferrous RufO binding to O2 and ^•NO. Spectral changes following the rapid mixing of 3.3 μM ferrous RufO bound to MRYLH with (A) 18 μM O2 and (C) 70 μM ^•NO over 0.2 s. The black-to-red spectral transitions represent the formation of (A) a ferric-superoxo intermediate and (C) a ferrous-nitrosyl complex. Insets show the time-dependent absorbance changes at 438 nm (the most pronounced shift), fitted using single exponential equations to determine rate constants (red trace). Dependence of rate constant as a function of gas concentration on (B) O2 and (D) ^•NO binding to ferrous RufO alone (blue) and peptide-bound RufO (red). Second-order rate constants were determined through linear fitting. TEXT PRINTED IN THE PICTURE: (A) + O2: kobs = 74.3 s^-1 | (B) RufO alone: k1 = 3.55 μM^-1 s^-1 | (B) peptide-bound: k1 = 3.83 μM^-1 s^-1 | (C) + •NO: kobs = 107.4 s^-1 | (D) RufO alone: k1 = 4.12 μM^-1 s^-1 | (D) peptide-bound: k1 = 2.35 μM^-1 s^-1
Stopped-flow spectroscopic data were collected using an Applied Photophysics SX20 stopped-flow system equipped with a photodiode array detector. The system was maintained in an anaerobic chamber (O2 < 1 ppm) and all sample preparation was done anaerobically. Measurements were performed at 4 °C. All samples were prepared in a buffer containing 50 mM Tris-HCl and 100 mM NaCl, pH 8.0. RufO was prereduced with a minimal amount of sodium dithionite. The final mixed concentrations of RufO and MRYLH (where applicable) were 3.3 and 24 μM, respectively. Solutions of varying O2 concentrations were prepared by diluting air-saturated buffer with anaerobic buffer. The concentrations of O2 in the air-saturated buffer were measured with an Oxygraph+ oxygen electrode (Hansatech). To generate ^•NO-containing solutions, 0.5 mM DEA NONOate (≥98%, Cayman Chemical) was incubated in anaerobic buffer for 4 h to ensure complete ^•NO release. The ^•NO concentrations were quantified based on a hemoglobin assay, and further dilutions were made with anaerobic buffer immediately prior to mixing. Experimental data were analyzed by the ProK software package from Applied Photophysics. The second-order rate constants were obtained from linear fitting, with the resulting equations: y = 3.55x + 54.4 for the mixing of RufO with O2, y = 3.83x + 6.5 for the ES complex with O2, y = 4.12x −158.0 for RufO with ^•NO, and y = 2.35x – 58.9 for the ES complex with ^•NO.
Figure S9. Transient kinetics of ferrous RufO alone binding to O2 and •NO Spectral changes following the rapid mixing of 3.3 μM ferrous RufO with (A) 18 μM O 2 and […] superoxo intermediate and (B) a ferrous-nitrosyl complex. Insets show the time-dependent absorbance changes at 438 nm (the most pronounced shift), fitted using first-order exponential equations to determine rate constants (red trace).
(§1) (1 picture or pasted object on this page, not shown here)

RufO [1] = biological target: T1, RufO (Streptomyces atratus, UniProt A0A224AU14); experiment: Isothermal titration calorimetry, peptide into RufO; format: binding; conditions: ITC, 20 °C, 190 μM RufO, 50 mM Tris-HCl, 100 mM NaCl pH 7.5, one set of sites, control subtracted
T1 construct: made in house
T1 sequence (A0A224AU14 1-394): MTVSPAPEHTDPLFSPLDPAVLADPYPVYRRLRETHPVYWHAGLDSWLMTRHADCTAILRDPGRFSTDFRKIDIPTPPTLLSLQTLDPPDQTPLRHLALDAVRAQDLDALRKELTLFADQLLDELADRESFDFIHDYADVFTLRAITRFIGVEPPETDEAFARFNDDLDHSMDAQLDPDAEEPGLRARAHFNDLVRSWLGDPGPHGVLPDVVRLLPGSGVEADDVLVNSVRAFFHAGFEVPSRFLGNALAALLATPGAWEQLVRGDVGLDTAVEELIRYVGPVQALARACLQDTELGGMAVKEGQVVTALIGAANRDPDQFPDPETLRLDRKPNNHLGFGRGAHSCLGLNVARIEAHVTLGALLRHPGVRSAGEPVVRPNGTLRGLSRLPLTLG
Procedure: ITC experiments were conducted at 20 °C using a MicroCal PEAQ-ITC instrument (Malvern Panalytical). RufO was prepared in a buffer containing 50 mM Tris-HCl and 100 mM NaCl at pH 7.5. The reference cell was filled with water. Each experiment involved 190 μM RufO in the sample cell, titrated with either 2.5 mM MRYLH or 2.8 mM Nle-RYLH in the syringe. Control experiments replaced the protein in the cell with buffer. The titration protocol included an initial 0.4 μL injection (excluded from analysis), followed by 19 injections of 2 μL at 2.5 min intervals. The cell was continuously stirred at 750 rpm. Data analysis was conducted using MicroCal PEAQ-ITC Analysis Software, with heats of dilution determined from the plateau region of the thermograms and subtracted from each integrated peak. All titrations are baseline corrected. The final integrated enthalpic changes were obtained by subtracting the controls from the protein-peptide titrations and fitted to a “one set of sites” binding model.

RufO [2] = biological target: T1, RufO; experiment: X-band cw EPR of RufO with peptide; format: binding; conditions: 100 μM RufO, 2 mM peptide, 10 K; double-integrated intensities
Procedure: 3 Spectroscopic characterization of the RufO heme center with and without peptide substrates. (A) X-band continuous wave EPR spectra of RufO (black), RufO with 2 mM MRYLH (red), and RufO with 2 mM Nle-RYLH (blue), measured at 10 K and 1 mW microwave power. The minor species marked by asterisks likely arise from conformational heterogeneity of the heme center or a freezing artifact. (B) rR spectra of RufO (top), RufO with 2 mM MRYLH (middle), and RufO with 2 mM Nle-RYLH (bottom). The spectra were collected using a 405 nm excitation laser at 5 mW. (C) rR spectra of CO adducts of ferrous RufO (top) and ferrous RufO with 2 mM Nle-RYLH (bottom). Spectra were collected using a 442 nm excitation line at 1 mW. (D) Backbonding correlations between v(Fe–C) and v(C–O) stretching frequencies for various CYPs in the absence (squares) and presence (circles) of ligands. […]
EPR samples were prepared by mixing 100 μM RufO in the same buffer with 5% glycerol and either 2 mM MRYLH or Nle-RYLH, followed by flash-freezing in 4 mm quartz EPR tubes. […] Each sample was measured at 9.35 GHz microwave frequency at 10 K using 1 mW microwave power. All spectra were recorded with four averaged scans using an ER4119HS resonator at a modulation frequency of 100 kHz and a modulation amplitude of 0.4 mT. The conversion rate of the low-spin species was determined by comparing the double-integrated intensities of the signals. […]

TxtE [3] = biological target: T2, TxtE (Streptomyces scabiei, UniProt C9ZDC6); experiment: Resonance Raman of TxtE with Trp; format: binding; conditions: 100 μM TxtE, 1 mM Trp
T2 sequence (C9ZDC6 1-406): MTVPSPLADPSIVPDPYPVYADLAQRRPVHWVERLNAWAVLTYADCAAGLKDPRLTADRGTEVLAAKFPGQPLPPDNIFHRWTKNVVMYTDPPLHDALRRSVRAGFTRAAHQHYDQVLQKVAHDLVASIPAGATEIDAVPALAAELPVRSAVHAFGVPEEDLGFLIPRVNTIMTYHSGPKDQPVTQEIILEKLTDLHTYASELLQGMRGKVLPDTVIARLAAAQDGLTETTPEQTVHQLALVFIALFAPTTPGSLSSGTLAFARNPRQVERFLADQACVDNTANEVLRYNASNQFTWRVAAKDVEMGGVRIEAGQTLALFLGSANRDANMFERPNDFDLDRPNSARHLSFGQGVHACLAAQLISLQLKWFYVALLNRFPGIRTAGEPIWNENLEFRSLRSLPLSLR
Procedure: All rR measurements were carried out in 180° backscattering geometry, with scattered light focused by a cylindrical lens (Nikon). The beam passed through a 405 nm notch filter (Thorlabs) for ferric samples or a 442 nm notch filter (Iridian) for ferrous-CO samples, before entering an iHR550 spectrometer (Horiba Scientific). The spectrometer was configured with a 120-μm entrance slit and a 1200 grooves/mm grating (estimated spectral resolution of 10 cm^–1) for ferric samples, or a 350-μm slit and 2400 grooves/mm grating (estimated spectral resolution of 10 cm^–1) for ferrous-CO samples, with detection by a liquid nitrogen-cooled Symphony CCD detector (Horiba Scientific). The accuracy of absolute frequencies is about ±1 cm^–1 based on duplicated measurements. Measurements were conducted at room temperature in 5 mm NMR tubes constantly spinning to prevent local heating and protein degradation. The acquisition times for ferric and CO-bound samples were set to 40 min and 2 h, respectively. UV–vis spectra were recorded before and after the measurements to ensure no photodegradation occurred. rR spectra were calibrated with fenchone (for all samples) and acetone-d 6 (for ferrous-CO samples in high-frequency regions) and processed using GRAMS/AI software (ThermoFisher).
(§2) Figure S1. Spectroscopic and ITC analysis of substrate binding in TxtE
(§3) (A) UV-vis spectra of 2 μM TxtE in the absence (black trace) and presence (red trace) of 0.5 mM
(§4) Trp; (B) ITC experiment of Trp titration to TxtE.
(§5) power observed with successive injections of 2 mM Trp to 50 μM TxtE after baseline correction.
(§6) consistent with a single binding site (red line). (C) Resonance Raman spectra of 100 μM TxtE in
(§7) the absence (top) and presence (bottom) of 1 mM Trp.
as §1

TxtE [4] = biological target: T2, TxtE; experiment: UV-vis of TxtE with Trp; format: binding; conditions: 2 μM TxtE, 0.5 mM Trp
Procedure: as §2, §3
Trp; (B) ITC experiment of Trp titration to TxtE. […]
as §1

TxtE [5] = biological target: T2, TxtE; experiment: ITC of Trp titration to TxtE; format: binding; conditions: 2 mM Trp into 50 μM TxtE
Procedure: as §2, §3, §4, §5, §6, §7, §1

[6] = biological target: T3, MRYLH pentapeptide (RufO substrate) (Streptomyces atratus); experiment: ITC
T3 chain: MRYLH

Molecule: nitric oxide [•NO]
- kobs (ferrous RufO; MRYLH-bound ferrous RufO 3.3 μM, 70 μM •NO, 438 nm, single exponential): 107.4 s⁻¹
- association rate constant k1 (ferrous RufO; MRYLH-bound, 24 μM MRYLH): 2.35 μM^–1 s^–1
- association rate constant k1 (ferrous RufO; RufO alone): 4.12 μM^–1 s^–1
- •NO concentration below which nitrosyl complex not detectable (ferrous RufO; RufO alone): < 50 µM
- •NO concentration below which nitrosyl complex not detectable (ferrous RufO; peptide-bound RufO): < 70 µM

Molecule: MRYLH [MRYLH]
- Kd (RufO [1]): 780 ± 300 nM
- conversion of original low-spin species to new low-spin species (RufO [2]): 84%

Molecule: N[C@@H](Cc1c[nH]c2ccccc12)C(=O)O [Trp, L-tryptophan]
- low-spin ν10 (1640 cm^–1), in words (TxtE [3]): disappearance
- ν4 on Trp binding (TxtE [3]; initially 1374 cm^–1): 1373 cm^–1
- ν3 on Trp binding (TxtE [3]; initially 1504 cm^–1, six- to five-coordinate high-spin conversion): 1488 cm^–1
- ν2 on Trp binding (TxtE [3]; initially 1588 cm^–1): 1570 cm^–1
- Soret band position on substrate binding (TxtE [4]): 390 nm
- ΔS, in words (TxtE [5]): negative ΔS
- Kd (TxtE [5]; single binding site): 16 µM
- ΔH (TxtE [5]; single binding site, exothermic): -14.6 kcal/mol

B1: RufO (protein)
chain: MTVSPAPEHTDPLFSPLDPAVLADPYPVYRRLRETHPVYWHAGLDSWLMTRHADCTAILRDPGRFSTDFRKIDIPTPPTLLSLQTLDPPDQTPLRHLALDAVRAQDLDALRKELTLFADQLLDELADRESFDFIHDYADVFTLRAITRFIGVEPPETDEAFARFNDDLDHSMDAQLDPDAEEPGLRARAHFNDLVRSWLGDPGPHGVLPDVVRLLPGSGVEADDVLVNSVRAFFHAGFEVPSRFLGNALAALLATPGAWEQLVRGDVGLDTAVEELIRYVGPVQALARACLQDTELGGMAVKEGQVVTALIGAANRDPDQFPDPETLRLDRKPNNHLGFGRGAHSCLGLNVARIEAHVTLGALLRHPGVRSAGEPVVRPNGTLRGLSRLPLTLG
- Kd [6]: 780 nM
